Reference: patent publication US11390644B2, “Raman tag” (Purdue Research Foundation, priority 2014, dated 2022)
“Also recorded” adds a separate entry of the source.

What was measured:
CHO cells [1] = test: Propidium iodide staining for late apoptosis and necrosis; type: cell-based, Chinese hamster; conditions: 30 μM, 24 h
Protocol: (§1) Referring now to FIG. 3, the cytotoxicity of cholesterol mimics was evaluated by MTT cell-viability assays after treating CHO cells with cholesterol mimic. Various concentrations of cholesterol mimic were added to the culture media and the cells were incubated for 48 hours before the assays were conducted. […] Adding a phenyl group reduced the cytotoxicity. To directly visualize the toxic effect, we stained the cells with propidium iodide for late apoptosis and necrosis.
(§2) To evaluate the cytotoxicity of tagged cholesterols, we performed MTT cell-viability assays after treating CHO cells with tagged cholesterol. Various concentrations of tagged cholesterol were added to the culture media and the cells were incubated for 48 h before the assays were conducted. […] To directly visualize the toxic effect, we stained the cells with propidium iodide for late apoptosis and necrosis. […] Based on the signal level and the severity of toxicity, we conclude that PhDY-Chol is the most suitable cholesterol probe for live cell imaging, and we used PhDY-Chol in subsequent experiments.
Propidium iodide was used to stain late apoptotic or necrotic cells. CHO cells were incubated with 30 μM of tagged cholesterol molecules for 24 h. The propidium iodide staining was performed following protocols provided by the manufacturer (Life Technologies).

CHO cells [2] = test: MTT cell-viability assay of tagged cholesterols; type: cell-based, Chinese hamster
Protocol: as §1
as §2, with “cholesterol.” for “cholesterol. Various concentrations of tagged cholesterol were added to the culture media and the cells were incubated for 48 h before the assays were conducted.”
(§3) CHO cells were grown in 96-well plates with density of 4000 cells per well. The next day, the cells were treated with each cholesterol probe at the indicated concentrations for 48 h. Cell-viability was measured with the MTT colorimetric assay (Sigma).

[3] = MTT cell-viability assay of tagged cholesterols; type: cell-based, Chinese hamster; conditions: Chinese hamster; CHO cells, 48 h incubation; read-out: IC50 (cytotoxicity, MTT cell viability)
Protocol: as §1
as §2, with “cholesterol.” for “cholesterol. Various concentrations of tagged cholesterol were added to the culture media and the cells were incubated for 48 h before the assays were conducted.”
as §3

[4] = Photostability under continuous SRS / TPEF image acquisition; type: physicochemical; conditions: 50 mM solution, acquired continuously for 150 s, one acquisition every 30 s
Protocol: FIG. 14. The photostability of PhDY-Chol and the photo-bleaching of BODIPY-Chol. The SRS images of 50 mM PhDY-Chol solution and TPEF images of 50 mM BODIPY-Chol solution were acquired continuously for 150 s (one acquisition every 30 s).

ACAT-1 = biological target: T1, ACAT-1 (Cricetulus griseus, UniProt Q60457); test: ACAT-1 inhibition (avasimibe) blocking probe storage into lipid droplets; type: cell-based, Chinese hamster; conditions: CHO cells
T1 construct: endogenous in cells; host or cells: CHO-K1 cells
T1 sequence (Q60457 1-546): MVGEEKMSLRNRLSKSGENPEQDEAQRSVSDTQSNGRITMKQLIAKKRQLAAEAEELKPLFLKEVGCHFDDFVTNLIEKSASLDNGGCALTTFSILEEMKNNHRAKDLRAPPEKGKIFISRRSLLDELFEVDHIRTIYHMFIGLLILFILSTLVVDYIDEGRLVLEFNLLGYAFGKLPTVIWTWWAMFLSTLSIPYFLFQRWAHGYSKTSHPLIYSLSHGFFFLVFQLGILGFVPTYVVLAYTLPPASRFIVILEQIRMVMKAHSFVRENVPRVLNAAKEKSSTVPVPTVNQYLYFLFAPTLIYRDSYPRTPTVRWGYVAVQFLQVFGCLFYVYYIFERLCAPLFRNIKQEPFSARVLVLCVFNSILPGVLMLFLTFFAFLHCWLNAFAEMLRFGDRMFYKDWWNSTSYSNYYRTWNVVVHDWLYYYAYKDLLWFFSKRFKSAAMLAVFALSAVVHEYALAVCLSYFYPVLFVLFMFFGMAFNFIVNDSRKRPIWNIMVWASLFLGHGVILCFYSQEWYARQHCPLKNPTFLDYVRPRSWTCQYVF
Protocol: (§4) It is hypothesized that PhDY-Chol is converted into PhDY-cholesteryl ester, by ACAT-1, the enzyme responsible for cholesterol esterification, as diagrammed in FIG. 4. To confirm the esterification of PhDY-Chol, we inhibited ACAT-1 with avasimibe for 24 h before addition of PhDY-Chol. […] Although LDs were still visible, the amount of PhDY-Chol signal found inside LDs reduced by 4 times (FIG. 4d). […] To determine where PhDY-Chol accumulates after ACAT-1 inhibition, we stained the cells with LysoTracker for lysosomes. […] To emphasize the physiological compatibility of our PhDY tag, we treated CHO cells with BODIPY-cholesterol.
as §4, with “important to note that PhDY-Chol-rich structures inside the CHO cells could not be stained by filipin (FIG. 10b), implicating that it is not in the free form. We hypothesize” for “hypothesized”, “esterification (FIG. 4b).” for “esterification, as diagrammed in FIG. 4.”
ACAT-1 inhibition was used to block cholesterol esterification either by adding a potent ACAT inhibitor, avasimibe, or by RNA interference with ACAT-1 shRNA plasmid. […]
(§5) To quantify PhDY-rich area, we first selected one cell and used “Threshold” function to select PhDY-rich cellular regions using ImageJ. […] To quantify PhDY-rich LDs, “Image Calculator” function in ImageJ was used to multiply SRS image of PhDY-Chol by TPEF image of BODIPY. Then, after using “Threshold” function to select PhDY-rich LDs, the number of PhDY-rich LDs was counted by “Analyze Particles” function. For each group, 7 cells were analyzed, and results were shown as mean±standard deviation (SD). […]

M12 cells = test: HPβCD treatment of PhDY-Chol-labeled M12 cells; type: cell-based, Chinese hamster; conditions: HPβCD 500 μM, 30 h
Description: (§6) We then treated the PhDY-Chol-labeled M12 cells with a cholesterol-mobilizing drug, hydroxypropyl-β-cyclodextrin (HPβCD). This drug is known to mediate lysosomal escape of cholesterol, and promote storage of excess cholesterol into LDs. […] These areas likely represent PhDY-cholesteryl ester stored in LDs. To confirm this possibility, we stained the cells with BODIPY for localization of LDs.
as §6, with “drug, HPβCD^40.” for “drug, hydroxypropyl-β-cyclodextrin (HPβCD).”, “into LDs^41.” for “into LDs.”
HPβCD was used as a drug treatment of NP-C disease. M12 cells were incubated with PhDY-Chol for 16 h as described above. […]
as §5

With `C[C@H](CCC#Cc1ccccc1)[C@H]1CC[C@H]2[C@@H]3CC=C4C[C@@H](O)CC[C@]4(C)[C@H]3CC[C@]12C` [PhA-Chol, phenyl-alkyne cholesterol] the “late apoptosis and necrosis, propidium iodide staining” value (“late apoptosis and necrosis” below) (CHO cells [1]) was “minimum cell death”.
For `C#CCC[C@@H](C)[C@H]1CC[C@H]2[C@@H]3CC=C4C[C@@H](O)CC[C@]4(C)[C@H]3CC[C@]12C` [A-Chol, alkyne cholesterol], the “cytotoxicity in MTT cell-viability assay” value (CHO cells [2]; CHO cells, various concentrations, 48 h) was “toxic to the cells”, the IC50 at 48 h [3] was 16 µM and the “late apoptosis and necrosis” value (CHO cells [1]) was “reduced density and extensive apoptosis”. The “late apoptosis and necrosis” value (CHO cells [1]; listed as alkyne-cholesterol) was “induces apoptosis and necrosis”.
With `C[C@H](CCC#CC#Cc1ccccc1)[C@H]1CC[C@H]2[C@@H]3CC=C4C[C@@H](O)CC[C@]4(C)[C@H]3CC[C@]12C` [PhDY-Chol, phenyl-diyne cholesterol] the “photostability / photo-bleaching of signal” value [4] was “No significant change of the SRS signal”, the “reduction of probe signal found inside LDs after ACAT-1 inhibition” value (ACAT-1; avasimibe 10 μM 24 h pre-treatment) was 4 times and the “localization after ACAT-1 inhibition (LysoTracker staining)” value (ACAT-1; avasimibe treatment) was “partially located in lysosomes”. The cytotoxicity (CHO cells [2]; 16 h incubation at 50 μM) was “did not cause cytotoxicity” and the “late apoptosis and necrosis” value (CHO cells [1]) was “minimum cell death”.
For `CC1=CC(C)=[N+]2C1=C(CC[C@@H](C)[C@H]1CC[C@H]3[C@@H]4CC=C5C[C@@H](O)CC[C@]5(C)[C@H]4CC[C@]13C)c1c(C)cc(C)n1[B-]2(F)F` [BODIPY-cholesterol, reference compound], the “photostability / photo-bleaching of signal” value [4] was “rapid photo-bleaching” and the “amount of probe incorporated into LDs after ACAT-1 inhibition” value (ACAT-1; ACAT-1 inhibited vs control) was “did not change; also recorded: no difference between the two groups”.
For hydroxypropyl-β-cyclodextrin [HPβCD], the “amount of PhDY-Chol in M12 cells after treatment” value (M12 cells) was “decreased by half” and the “number of PhDY-rich LDs after treatment” value (M12 cells; BODIPY staining) was “increased significantly”.
